In US20230293411A1, “BIODEGRADABLE UV ABSORBERS” (BASF SE, priority 2020, published 2023):
Structures can show the parent of a compound that is named as a salt. Where two headings read alike, the source gives them in different places.

Assays:
[1] = Specific extinction coefficient by UV/VIS spectrophotometry in water; type: physicochemical
[2] = Biodegradation, OECD 301F manometric respirometry test; conditions: inferred from components; the salt itself was not tested
[3] = Absorbance of croconic acid salts in formulation on PMMA plates; type: physicochemical; conditions: for Absorbance of the formulation: Formulations 1 and 2, 30 mg on PMMA plate, 15 minutes equilibration, 290-400 nm, FIG. 2, compared to Table 1
Procedure: The absorbance of Formulation 1 and 2 was determined as follows: […]
30 mg milligram of product were evenly spread on roughened PMMA plates (Heliosplate SB6, Helioscreen Creil/France) using a presaturated finger cot. After an equilibration time of 15 minutes transmission measurements between 290 and 400 nm were carried out using a spectrophotometer equipped with an integrating sphere (UV Transmittance Analyzer UV1000-S, Labsphere North Sutton/US).

Compound	E1, 1 (specific extinction coefficient at λmax) [1]	Maximum absorbance wavelength (λmax) [1] [nm]	Biodegradability concluded from croconic acid and triethanolamine [2]	Absorbance of the formulation [3]	E1, 1 (specific extinction coefficient at λmax) ([1]; in water, d=1 cm, at λmax)	Maximum absorbance wavelength (λmax) ([1]; in water, optical pathlength d=1 cm, spectrum 250 nm to 500 nm) [nm]	Crystallization after water evaporation ([3]; in formulation on PMMA plate)
O=c1c([O-])c([O-])c(=O)c1=O.[K+].[K+] [Comp. Compound 2, 4,5-Dihydroxy-4-cyclopentene-1,2,3-trione di-Potassium Salt]	1704	364	–	–	–	–	–
O=c1c(O)c(O)c(=O)c1=O [Compound A, 4,5-Dihydroxy-4-cyclopentene-1,2,3-trione di-triethanolammonium Salt]	844	364	biodegradable	within the expected range	–	–	–
O=c1c([O-])c([O-])c(=O)c1=O.[Na+].[Na+] [Comp. Compound 1, 4,5-Dihydroxy-4-cyclopentene-1,2,3-trione di-Sodium Salt]	–	–	–	lower	1996	364	crystallization
